Measured values published in patent publication US20260248767A1, “METHODS FOR INDUCING FERROPTOSIS IN CANCER” (Board of Regents, The University of Texas System, priority 2023, published 2026).
“Also recorded” adds a separate entry of the source.

Legend:
SHMT2 protein = target: T1, SHMT2 protein (Homo sapiens, UniProt P34897); experiment: SHMT2 tetramer formation (immunoblot); type: cell-based; settings: sulfite treatment
T1 construct: endogenous in cells
T1 sequence (P34897 30-504): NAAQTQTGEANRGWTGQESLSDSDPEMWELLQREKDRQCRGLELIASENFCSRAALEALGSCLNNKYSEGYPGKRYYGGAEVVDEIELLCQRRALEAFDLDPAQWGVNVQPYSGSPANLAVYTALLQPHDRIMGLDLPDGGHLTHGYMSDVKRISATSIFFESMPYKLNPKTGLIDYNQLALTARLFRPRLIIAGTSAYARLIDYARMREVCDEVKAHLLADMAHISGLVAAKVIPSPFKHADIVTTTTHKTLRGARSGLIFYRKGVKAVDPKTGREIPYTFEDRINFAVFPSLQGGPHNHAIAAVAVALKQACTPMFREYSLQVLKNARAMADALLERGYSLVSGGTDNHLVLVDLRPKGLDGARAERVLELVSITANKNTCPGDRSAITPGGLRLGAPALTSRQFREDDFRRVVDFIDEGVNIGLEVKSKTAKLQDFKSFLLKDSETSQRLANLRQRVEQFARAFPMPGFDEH
Description: Exogenously expressed SHMT2 was also able to form tetramer (FIG. 8B).
To generate cell lines with stable overexpression of C-terminal-tagged SHMT2, the SHMT2 cDNA was cloned into the lentivirus expression vector pLEX_307 SFB. HEK293T cells were transfected with either pLEX_307 SFB-empty vector, or -SHMT2, together with the lentiviral packaging plasmids psPAX2 and pMD2.G using Lipofectamine 2000 reagent (Life Technologies, #11668030) according to the manufacturer's instructions and as described previously (Lei, G. et al. Oncogene 40, 3533-3547, doi: 10.1038/s41388-021-01790-w (2021); Lei, G. et al. Cell Res 30, 146-162, doi: 10.1038/s41422-019-0263-3 (2020)). Forty-eight hours later, lentivirus was collected and filtered, and the target cell lines were infected with lentivirus. Twenty-four hours after infection, antibiotic was added to the medium to obtain stable cell lines. Protein expression levels were determined by immunoblotting. To generate knockdown cell lines, lentiviral transduction with IDH1/ME1/MTHFD21 shRNA vectors was conducted as described previously (Lin, A. et al. Cancer Res 74, 1682-1693, doi: 10.1158/0008-5472.CAN-13-1729 (2014)). Forty-eight hours later, upon puromycin antibiotic selection, protein expression levels were determined by immunoblotting.
Briefly, cells were lysed in NP-40 lysis buffer (50 mM Tris [pH 7.4], 250 mM NaCl, 5 mM EDTA, 50 mM NaF, 1 mM Na3VO4, 1% Nonidet P40) containing complete mini protease inhibitors (Roche). The protein concentration of lysates was quantified using BCA Protein Assay Kit from Life Technologies (#23227). 20 μg of total protein was loaded into SDS-PAGE gel and transferred to a PVDF membrane (Bio-Rad) using standard techniques. […]

cells = experiment: Metabolomic analysis of vehicle or sulfite treated cells; type: cell-based
Method: Metabolomic analysis was performed in vehicle or sulfite treated cells. An increase in the levels of 6-phospho-D-Gluconate (FIG. 3C), ribose phosphate (FIG. 3D), D-Glyceraldehyde 3-phosphate (FIG. 3E), D-sedoheptulose-1/7 phosphate (FIG. 3F), NDAP+/NADPH ratio (FIG. 3G), oxPPP shunting (FIG. 3H) were observed.
Metabolomic analysis was performed as previously described (Liu, X. et al. Nat Cell Biol 22, 476-486, doi: 10.1038/s41556-020-0496-x (2020)). Cells were seeded on 35-mm culture plates at a density sufficient to ensure approximately 70-80% confluence at the time of extraction. Metabolites were extracted at the indicated time points for subsequent analyses. Metabolites were extracted by rapidly aspirating the culture medium and then adding 500 μl of an 80% methanol: 20% water mixture at dry ice temperature. The plates were incubated on dry ice for 15 min before the cells were scraped into pre-chilled Eppendorf tubes. The cell debris was pelleted by centrifugation at 13,000 ref for 5 min at 4° C. and the supernatant was transferred into a fresh tube and stored on dry ice until analysis. Just before analysis, 500 μl of extract was dried under nitrogen gas flow and then resuspended in 100 μl water.
The complete platform consists of an Accela 1250 HPLC system, Accela Open Autosampler, MayLab Mistraswitch column oven and Exactive orbitrap mass spectrometer, controlled by the Xcalibur 3.0.63 software package. Chromatography was performed with a Phenomenex Synergi Hydro-RP column (100×2 mm, 2.5 μm particle size). Solvent A is 10 mM tributylamine and 15 mm acetic acid in water; Solvent B is methanol. The gradient is: 0 min, 0% B; 2.5 min, 0% B; 5 min, 20% B; 7.5 min, 20% B; 13 min, 55% B; 15.5 min, 95% B; 18.5 min, 95% B; 19 min, 0% B; 25 min, 0% B. The injection volume was 10 μl. The column temperature was set to 40° C., and the flow rate was 200 μl/min. The Exactive was operated in negative ionization mode with an electrospray ionization interface. The instrument parameters are as follows: sheath gas flow rate 30 (arbitrary units), aux gas flow rate 10 (arbitrary units), sweep gas flow rate 3 (arbitrary units), spray voltage 3 kV, capillary temperature 325° C., capillary voltage −25 V, tube lens voltage −50 V. The scan range was set to 80-1,000 m/z, with a maximum inject time of 250 ms, resolution of 100,000 at 1 Hz, and AGC (automatic gain control) target 1×10^6. The data were analyzed using the MAVEN software suite with signal intensity determined as the Peak Area (Top). For metabolic labelling experiments, the data were corrected to account for the natural abundance of nitrogen-15 using IsoCorrectoR (Heinrich, P. et al. Sci Rep 8, 17910, doi: 10.1038/s41598-018-36293-4 (2018)).

[1] = sulfite vs vehicle treated cells

O=S([O-])[O-].[Na+].[Na+] [sulfite, sodium sulfite]
tetramer formation of endogenous SHMT2 protein (SHMT2 protein): disrupt the tetramer formation; also recorded: inhibits the tetramer formation
tetramer formation of exogenous expressed SHMT2 (SHMT2 protein): inhibit the tetramer formation
tetramer formation of exogenous expressed SHMT2 (SHMT2 protein; listed as Sulfite): inhibited the tetramer formation
Levels of S-sulfocysteine (cells; sulfite treated samples): increase
level of 6-phospho-D-Gluconate (cells; [1]): increase
level of D-Glyceraldehyde 3-phosphate (cells; [1]): increase
level of D-sedoheptulose-1/7 phosphate (cells; [1]): increase
level of ribose phosphate (cells; [1]): increase
